From US11952577B2, “Yarrowia lipolytica yeast strains expressing an HMG-CoA reductase having increased activity or expression” (NUCELIS LLC, priority 2009, dated 2024)

Columns and labels:
[1] = system: Yarrowia lipolytica ATCC 90904; assay: Cultivation in supplemented CYM001 media, lipid and squalene production; format: cell-based; settings: 30′C, 300 rpm, 120 h
Method: For example, Yarrowia lipolytica ATCC 90904 was cultivated in high Carbon/Nitrogen ratio media (C/N=420, Li. Y-H., Liu, B., Zhao, Z-B., and Bai. F-W. 2006 “Optimized Culture Medium and Fermentation Conditions for Lipid Production by Rhodosporidium toruloides” Chinese Journal of Biotechnology 22(4): 650-656) (hereinafter “CYM001 Media”) supplemented with 0 to 50 μg/ml terbinafine at 30′C, 300 rpm for 120 h.
In another example, Yarrowia lipolytica ATCC 90904 was cultivated in CYM001 media supplemented with 0 to 50 μg/ml Oleic acid at 30′C, 300 rpm for 120 h.
In a further example, Yarrowia lipolytica ATCC 90904 was cultivated in CYM001 media supplemented with 0 to 200 μM clethodim at 30′C, 300 rpm for 120 h.

[2] = system: Yarrowia lipolytica strain polg (Yeastern); assay: as above; format: cell-based; settings: 30′C, 300 rpm, 120 h
From the text: Various Yarrowia lipolylica strains are used for lipid and squalene production including ATCC 20688, ATCC 90811, ATCC 90904, ATCC 90812, ATCC MYA-2613, and Yeastern polg. For example, Yarrowia lipolytica strain polg (Yeastern) was cultivated in high Carbon/Nitrogen ratio media (C/N=420, Li, Y-H., Liu. B., Zhao. Z-B., and Bai, F-W. 2006 “Optimized Culture Medium and Fermentation Conditions for Lipid Production by Rhodosporidium toruloides” Chinese Journal of Biotechnology 22(4): 650-656) (hereinafter “CYM001 Media”) supplemented with 0 to 50 μg/ml terbinafine at 30′C, 300 rpm for 120 h.

Structure (SMILES): CCSC(C)CC1CC(=O)C(/C(CC)=N/OC/C=C/Cl)=C(O)C1 (centres unmarked) [clethodim]
- increase in the yield (mg) of squalene per 60-ml flask ([1]; 200 μM): 60 fold

Structure (SMILES): CCCCCCCC/C=C\CCCCCCCC(=O)O [Oleic acid]
- improvement of lipid accumulation in lipid/CDW over no supplementation ([1]; 10 μl/ml): 10 fold

Structure (SMILES): CN(C/C=C/C#CC(C)(C)C)Cc1cccc2ccccc12 [terbinafine]
- total lipid as squalene ([1]; 12.5 μg/ml or higher): up to 18.5%
- total lipid as squalene ([2]; 12.5 μg/ml or higher, CYM001 media): up to 38%
- total lipid/Cell Dry weight ([2]; terbinafine-supplemented CYM001 media): up to 51%
